Laboratory results taken from US20060014730A1, “Ansamycin formulations and methods for producing and using same” (Conforma Therapeutics Corporation, priority 2002, published 2006).
Like-named read-outs stand apart in the source and are kept apart here.

Experiments:
[1] = Drug concentration achieved in the emulsion; type: physicochemical
[2] = Dissolution of 17-AAG in Phospholipon in Miglyol solution without ethanol; type: physicochemical; conditions: lower melting point form crystallized from isopropanol rather than ethanol; room temperature
Text: Alternatively, 17-AAG can be brought […], adding to this the drug, e.g., 17-AAG, and mixing, e.g., by stirring and/or sonication.

[3] = tested on: adult patients with advanced solid tumors; conditions: daily 1-hour infusion for 5 days every three weeks; cited from earlier work
[4] = cited from earlier work; for Cmax: human, in vivo
[5] = adult patients, daily 1-hour infusion for 5 days every three weeks

For C=CCNC1=C2C[C@@H](C)C[C@H](OC)[C@H](O)[C@@H](C)/C=C(\C)[C@H](OC(N)=O)[C@@H](OC)/C=C\C=C(/C)C(=O)NC(=CC1=O)C2=O [Compound 17-AAG, 17-allylamino-geldanamycin], the “concentration achieved in the oil phase alone” value ([1]; oil phase alone) was 20000 to 30000 µg/mL, the concentration achieved overall ([1]; whole emulsion) was ≤ 3000 µg/mL and the “dissolution into the Phospholipon in Miglyol solution” value [2] was “more readily can be dissolved”. The “maximum tolerated dose (MTD)” value [3] was 40 mg/m^2, the “clearance (mean+/-SD)” value [4, 5] was 41.0 ± 13.5 L/h and the “steady-state volume (mean+/-SD)” value [4, 5] was 86.6+/−34.6 L/m^2. The “terminal half-life (mean+/-SD)” value [4, 5] was 2.5 ± 0.5 h, the Cmax ([4]; 40 mg/m2) was 1860 nM and the Cmax ([4]; 56 mg/m2) was 3170 nM.
